Legend:
Assay type in all cases: in vivo
[1] = system: substantia nigra pp38; assay: Substantia nigra pp38 protein expression in MPTP Parkinson's disease model mouse (immunofluorescence); conditions: percentage of mean intensity of blank control group, gavage 21 days after MPTP modeling
Procedure: (§1) Neurotoxins can be used to establish PD animal models. Currently, 1-methyl-4-phenyl-1,2,3,6-tetrahydropyridine (MPTP) is the sole synthetic toxin which is recognized to induce PD symptoms in human and non-human primates and in mice. Using MPTP subacute modeling method, C57BL/6J male mice were intraperitoneally injected with MPTP 30 mg/kg, once a day for 5 consecutive days. The experiment animals were divided into blank control group, MPTP model group, and compound treatment group. For the […] compound treatment group, the compound was administrated by gavage for 21 consecutive days after the completion of modeling; for the MPTP model group, the normal saline was administrated by gavage for 21 consecutive days after the completion of modeling; and for the blank control group, the normal saline was first intraperitoneally injected for 5 days, and then administrated by gavage for 21 days.
The p38 mitogen-activated protein kinase (p38 MAPK) is expressed in both neurons and glial cells, and is the intersection point of neuron-glial cell network information regulations. The activation of p38 signaling pathway is an important initiator of neuronal degeneration, which continuously induces the apoptosis of dopaminergic neurons in multiple ways. It has become a research hotspot for the treatment of PD. Studies have shown that the protective mechanism of CAPE against the death of primary cultured cerebellar granule neurons induced by glutamate lies in inhibiting the activation of p38 phosphorylation and in turn inhibiting the activation of the caspase 3 apoptotic pathway to prevent neuronal apoptosis. Therefore, the MPTP-induced PD mouse model can be used to investigate the inhibitory effect of the target compounds on the activation of p38 phosphorylation on the overall animal level.
(§2) Half of experiment mice in each group were taken to separate the midbrain after perfusion and fixation. The tissue was trimmed, and the substantia nigra-striatum area was taken to prepare paraffin sections. The double immunofluorescence staining for TH and phosphorylated p38 was performed to observe the coexpression of TH and phosphorylated p38, for the statistics of the change in the phosphorylated p38 protein expression. The experiment included blank control group, MPTP model group, positive control group (caffeic acid phenethyl ester, CAPE), prototype control group (styryl sulfone compounds 3B, 3C, 3D, and 3G, whose structures are shown as above), and target compound group.

[2] = system: hippocampus CD11b; assay: Number of hippocampus microglial cells with CD11b positive expression in MPTP Parkinson's disease model mouse (immunohistochemistry); conditions: hippocampus, MPTP Parkinson's disease model mouse, immunohistochemistry
Procedure: as §1
(§3) Neuron-glial cell network homeostasis disorder is an important factor for the selective and progressive death of substantia nigra dopaminergic neurons in PD. In the neurotoxic effect of MPTP, the excessive activations of microglial cells and astrocytes produce a variety of inflammatory cytokines and reactive oxygen species (ROS). These inflammatory factors and ROS amplify their respective toxicities and mediate malignant feedback loop, causing a cascade inflammation response and aggravating the pathological process of PD. CD11b and GFAP are the marker proteins for activations of microglial cells and astrocytes, respectively. Therefore, the effect of the target compounds on the activations of the microglial cells and astrocytes in the substantia nigra, hippocampus, and midbrain areas of MPTP-induced PD mice can be investigated, to explore the mechanism of the anti-PD effect of the target compounds by inhibiting the neuroinflammation.
as §2, with “hippocampus” for “substantia nigra-striatum”, “CD11b immunohistochemical” for “double immunofluorescence”, “staining” for “staining for TH and phosphorylated p38”, “performed” for “performed to observe the coexpression of TH and phosphorylated p38,”, “number of microglial cells with CD11b positive” for “phosphorylated p38 protein”

[3] = system: midbrain TH; assay: Midbrain TH expression in MPTP Parkinson's disease model mouse (western-blotting); conditions: midbrain total protein, GAPDH internal reference, gavage 21 days after MPTP modeling
Procedure: as §1
The main cause of PD lies in the pathological changes in the substantia nigra-striatum projection system of the brain and the progressive degeneration and loss of dopaminergic neurons. Tyrosine hydroxylase (TH) is the first enzyme in the biosynthesis of catecholamine neurotransmitters, as well as the first rate-limiting enzyme in the dopamine synthesis. It plays an important role in the synthesis and metabolism of the neurotransmitter DA. The TH in PD animal models and patients has a wide range of abnormal changes, from the gene expression to the enzyme protein content and enzyme activity. The detection of the TH expression in the midbrain and substantia nigra of PD model mice can be used to evaluate the neuroprotective activity of the compound.
(§4) Half of experiment mice in each group were taken to extract the total midbrain protein, and the change in the midbrain TH was determined by western-blotting using GAPDH as the internal reference. The experiment included blank control group, MPTP model group, positive control group (caffeic acid phenethyl ester, CAPE), prototype control group (styryl sulfone compounds 3B, 3C, 3D, and 3G, whose structures are shown as above), and target compound group.

[4] = system: substantia nigra CD11b; assay: Number of substantia nigra microglial cells with CD11b positive expression in MPTP Parkinson's disease model mouse (immunohistochemistry); conditions: substantia nigra, MPTP Parkinson's disease model mouse, immunohistochemistry
Procedure: as §1, §3
as §2, with “nigra” for “nigra-striatum”, “CD11b immunohistochemical” for “double immunofluorescence”, “staining” for “staining for TH and phosphorylated p38”, “performed” for “performed to observe the coexpression of TH and phosphorylated p38,”, “number of microglial cells with CD11b positive” for “phosphorylated p38 protein”

[5] = system: hippocampus GFAP; assay: Number of hippocampus astrocytes with GFAP positive expression in MPTP Parkinson's disease model mouse (immunohistochemistry); conditions: hippocampus, MPTP Parkinson's disease model mouse, immunohistochemistry
Procedure: as §1, §3
as §2, with “hippocampus” for “substantia nigra-striatum”, “GFAP immunohistochemical” for “double immunofluorescence”, “staining” for “staining for TH and phosphorylated p38”, “performed” for “performed to observe the coexpression of TH and phosphorylated p38,”, “number of astrocytes with GFAP positive” for “phosphorylated p38 protein”

[6] = system: midbrain p-α-s; assay: Midbrain p-α-s protein expression in MPTP Parkinson's disease model mouse (western-blotting); conditions: midbrain total protein, GAPDH internal reference, gavage 21 consecutive days after MPTP modeling
Procedure: as §1
Alpha-synuclein is an “unfolded protein” in its natural state. It exists in a monomeric form, and participates in the physiological functions such as the release of neurotransmitters, the establishment of synaptic junctions, and the regulation of synaptic plasticity. Under pathological conditions, more than 90% of alpha-synuclein is phosphorylated at serine of position 129 and converted into phosphorylated alpha-synuclein (p-α-s), thereby forming Lewy bodies. The formation of Lewy bodies is one of the main pathological manifestations and pathological mechanisms for Parkinson's disease, and plays an important role in the formation and development of PD. The detection of the p-α-s expression in the midbrain and substantia nigra of PD model mice can evaluate the neuroprotective activity of the compound.
as §4, with “P-α-s protein expression” for “TH”

Compound | Expression (Immunofluorescence intensity %) [1] | Positive cell number (microglial cells with CD11b positive expression) [2] | Expression (TH/GAPDH) [3] | Positive cell number (microglial cells with CD11b positive expression) [4] | Positive cell number (astrocytes with GFAP positive expression) [5] | Expression (p-α-s/GAPDH) [6]
(E)-2-[(methylamino)methoxy]-4-{2-[1-(4′-nitro-[1,1′-biphenyl]-4-yl)ethylsulfonyl]ethenyl}phenylcarbamate [Compound M1-3] | 100.22 ± 14.12% | 12 ± 2 | 0.84 ± 0.06 | 33 ± 5 | 57 ± 3 | 0.42 ± 0.05
O=S(=O)(/C=C/c1ccc(O)c(O)c1)Cc1ccc(C(F)(F)F)cc1 [Compound 3B, (E)-4-{2-[(4-trifluoromethylphenyl)mesyl]ethenyl}benzene-1,2-diol, reference compound] | 134.70 ± 31.07% | 16 ± 2 | 0.53 ± 0.03 | 44 ± 5 | 118 ± 8 | 0.93 ± 0.04
CCN(C)C(=O)Oc1ccc(/C=C/S(=O)(=O)CC(c2ccc(-c3ccc(OC)c(OC)c3)cc2)[N+](=O)[O-])cc1OC(=O)N(C)CC (stereo not drawn) [Compound M1-1, (E)-4-{2-[2-(3′,4′-dimethoxy-[1,1′-biphenyl]-4-yl)-2-nitroethylsulfonyl]ethenyl}-1,2-phenylenebis(N-ethyl-N-methylcarbamate)] | 98.35 ± 6.93% | 5 ± 1 | 1.35 ± 0.04 | 20 ± 3 | 51 ± 5 | 0.27 ± 0.08
CC(C)N(c1ccc(CCS(=O)(=O)/C=C/c2ccc(OC(=O)N(C)c3ccc(I)cc3)c(OCCOCc3ccccc3)c2)cc1)C(C)C [Compound A1-3, (E)-2-(2-benzyloxyethoxy)-4-{2-[4-(N,N-diisopropylamino)phenylethylsulfonyl]ethenyl}phenyl-N-(4-iodophenyl)-N-methylcarbamate] | 58.19 ± 12.07% | 14 ± 2 | 0.93 ± 0.07 | 38 ± 4 | 55 ± 3 | 0.56 ± 0.12
COc1ccc(CC(=O)Oc2ccc(C(N)CS(=O)(=O)/C=C/c3ccc(OC(C)(C)C)c(OC(=O)N(C)c4ccccc4)c3)cc2)cc1 (stereo not drawn) [Compound P1-3, (E)-4-{1-amino-2-[4-t-butoxy-3-(N-methyl-N-phenylcarbamoyloxy)styrylsulfonyl]ethyl}phenyl-2-(4-methoxyphenyl)acetate] | 81.90 ± 9.52% | 16 ± 2 | 0.77 ± 0.03 | 31 ± 4 | 74 ± 3 | 0.31 ± 0.05
O=S(=O)(/C=C/c1ccc(O)c(O)c1)Cc1ccc(Cl)cc1 [Compound 3D, (E)-4-{2-[(4-chlorophenyl)mesyl]ethenyl}benzene-1,2-diol, reference compound] | 114.68 ± 21.42% | 18 ± 3 | 0.93 ± 0.06 | 39 ± 4 | 106 ± 6 | 0.49 ± 0.12
CCOC(CS(=O)(=O)/C=C/c1ccc(OC(C)=O)c(OC(=O)Nc2ccc(NC)cc2)c1)C(OCC)c1ccc(OCc2ccccc2)c(O)c1 (stereo not drawn) [Compound H2-4, (E)-4-{2-[3-(4-benzyloxy-3-hydroxyphenyl)-2,3-diethoxypropyl]sulfonylethenyl}-2-[N-(4-methylaminophenyl)carbamoyloxy]phenyl acetate] | 103.17 ± 12.58% | 7 ± 1 | 1.02 ± 0.04 | 29 ± 4 | 61 ± 5 | 0.53 ± 0.13
COCCN(C)C(=O)Oc1cc(/C=C/S(=O)(=O)CCc2cccc(-c3ccc(C)o3)c2)ccc1OC(C)=O [Compound J1-4, (E)-2-[N-(2-methoxyethyl)-N-methylcarbamoyloxy]-4-{2-[3-(5-methylfur-2-yl)phenylethylsulfonyl]ethenyl}phenyl acetate] | 100.62 ± 13.35% | 10 ± 2 | 0.89 ± 0.04 | 24 ± 5 | 79 ± 2 | 0.47 ± 0.11
CC(=O)Oc1ccc(/C=C/S(=O)(=O)Cc2c(F)c(F)c(F)c(F)c2F)cc1OC(=O)NC(=O)c1ccc([N+](=O)[O-])c(C)c1 [Compound D5-4, (E)-2-[N-(3-methyl-4-nitrobenzoyl)carbamoyloxy]-4-{2-[(perfluorophenyl)mesyl]ethenyl}phenyl acetate] | 103.25 ± 15.27% | 12 ± 2 | 1.19 ± 0.05 | 41 ± 3 | 59 ± 3 | 0.64 ± 0.12

Reference: US12410124B2 (priority 2019, dated 2025)
